Experimental data taken from the supplement of paper PMC10307832.

Legend:
Experiment in all cases: relative viability (nuclei count vs DMSO), 5 days (fraction); higher = more cells survive
201T = test system: 201T
Procedure, shortened: (§1)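 Relative viability is defined as nuclei in treated wells over nuclei in vehicle wells. Duplicate plates were run and medians reported. Lung cancer cell lines in 1536-well plates were dosed by pin tool one day after seeding, with one drug or with a fixed anchor-drug dose plus five library-drug doses (not always all listed) in √10 steps, and nuclei were counted after 5 days.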

A-427 = test system: A-427
Procedure, shortened: as §1

COR-L23 = test system: COR-L23
Procedure, shortened: as §1

H3255 = test system: H3255
Procedure, shortened: as §1

HCC-44 = test system: HCC-44
Procedure, shortened: as §1

LCLC-103H = test system: LCLC-103H
Procedure, shortened: as §1

LCLC-97TM1 = test system: LCLC-97TM1
Procedure, shortened: as §1

LK-2 = test system: LK-2
Procedure, shortened: as §1

LU99A = test system: LU99A
Procedure, shortened: as §1

NCI-H1563 = test system: NCI-H1563
Procedure, shortened: as §1

NCI-H1793 = test system: NCI-H1793
Procedure, shortened: as §1

NCI-H1944 = test system: NCI-H1944
Procedure, shortened: as §1

NCI-H2347 = test system: NCI-H2347
Procedure, shortened: as §1

NCI-H23 = test system: NCI-H23
Procedure, shortened: as §1

NCI-H460 = test system: NCI-H460
Procedure, shortened: as §1

NCI-H650 = test system: NCI-H650
Procedure, shortened: as §1

NCI-H727 = test system: NCI-H727
Procedure, shortened: as §1

NCI-H838 = test system: NCI-H838
Procedure, shortened: as §1

PC-14 = test system: PC-14
Procedure, shortened: as §1

PC-3 [JPC-3] = test system: PC-3 [JPC-3]
Procedure, shortened: as §1

SW 1573 = test system: SW 1573
Procedure, shortened: as §1

**Q.** Which relative viability (201T; first compound 0.005 µM) does the source give for `CC1(C)CCC(c2ccc(Cl)cc2)=C(CN2CCN(c3ccc(C(=O)NS(=O)(=O)c4ccc(N[C@H](CCN5CCOCC5)CSc5ccccc5)c(S(=O)(=O)C(F)(F)F)c4)cc3)CC2)C1` [Navitoclax] + C[C@]1(O)C[C@@H](c2nc(-c3ccc4ccc(-c5ccccc5)nc4c3)c3c(N)nccn32)C1 [Linsitinib] (partner 1 µM) here?
**A.** 1.11

**Q.** What about the relative viability (201T; first compound 0.01581 µM) of the same compound?
**A.** 1.09

**Q.** And the relative viability (201T; first compound 0.05 µM)?
**A.** 0.95

**Q.** And the relative viability (201T; first compound 0.1581 µM)?
**A.** 1.05

**Q.** And the relative viability (201T; first compound 0.5 µM)?
**A.** 1.01

**Q.** What about the relative viability (A-427; first compound 0.005 µM) of the same compound?
**A.** 1.13

**Q.** And the relative viability (A-427; first compound 0.01581 µM)?
**A.** 1.11

**Q.** What about the relative viability (A-427; first compound 0.05 µM) of the same compound?
**A.** 0.911

**Q.** What about the relative viability (A-427; first compound 0.1581 µM) of the same compound?
**A.** 1.12

**Q.** What about the relative viability (A-427; first compound 0.5 µM) of the same compound?
**A.** 1.15

**Q.** What about the relative viability (COR-L23; first compound 0.005 µM) of the same compound?
**A.** 0.874

**Q.** What about the relative viability (COR-L23; first compound 0.01581 µM) of the same compound?
**A.** 0.991

**Q.** And the relative viability (COR-L23; first compound 0.05 µM)?
**A.** 0.97

**Q.** What about the relative viability (COR-L23; first compound 0.1581 µM) of the same compound?
**A.** 0.853

**Q.** And the relative viability (COR-L23; first compound 0.5 µM)?
**A.** 0.88

**Q.** What about the relative viability (H3255; first compound 0.005 µM) of the same compound?
**A.** 0.917

**Q.** And the relative viability (H3255; first compound 0.01581 µM)?
**A.** 1.12

**Q.** What about the relative viability (H3255; first compound 0.05 µM) of the same compound?
**A.** 0.877

**Q.** And the relative viability (H3255; first compound 0.1581 µM)?
**A.** 0.892

**Q.** What about the relative viability (H3255; first compound 0.5 µM) of the same compound?
**A.** 0.89

**Q.** And the relative viability (HCC-44; first compound 0.005 µM)?
**A.** 0.592

**Q.** And the relative viability (HCC-44; first compound 0.01581 µM)?
**A.** 0.625

**Q.** What about the relative viability (HCC-44; first compound 0.05 µM) of the same compound?
**A.** 0.594

**Q.** What about the relative viability (HCC-44; first compound 0.1581 µM) of the same compound?
**A.** 0.649

**Q.** And the relative viability (HCC-44; first compound 0.5 µM)?
**A.** 0.646

**Q.** And the relative viability (LCLC-103H; first compound 0.005 µM)?
**A.** 1.07

**Q.** And the relative viability (LCLC-103H; first compound 0.01581 µM)?
**A.** 1.19

**Q.** And the relative viability (LCLC-103H; first compound 0.05 µM)?
**A.** 1.09

**Q.** What about the relative viability (LCLC-103H; first compound 0.1581 µM) of the same compound?
**A.** 1.03

**Q.** And the relative viability (LCLC-103H; first compound 0.5 µM)?
**A.** 1.02

**Q.** And the relative viability (LCLC-97TM1; first compound 0.005 µM)?
**A.** 0.189

**Q.** And the relative viability (LCLC-97TM1; first compound 0.01581 µM)?
**A.** 0.186

**Q.** And the relative viability (LCLC-97TM1; first compound 0.05 µM)?
**A.** 0.193

**Q.** And the relative viability (LCLC-97TM1; first compound 0.1581 µM)?
**A.** 0.18

**Q.** And the relative viability (LCLC-97TM1; first compound 0.5 µM)?
**A.** 0.172

**Q.** And the relative viability (LK-2; first compound 0.005 µM)?
**A.** 0.792

**Q.** What about the relative viability (LK-2; first compound 0.01581 µM) of the same compound?
**A.** 0.803

**Q.** What about the relative viability (LK-2; first compound 0.05 µM) of the same compound?
**A.** 0.805

**Q.** What about the relative viability (LK-2; first compound 0.1581 µM) of the same compound?
**A.** 0.51

**Q.** What about the relative viability (LK-2; first compound 0.5 µM) of the same compound?
**A.** 0.623

**Q.** And the relative viability (LU99A; first compound 0.005 µM)?
**A.** 0.622

**Q.** And the relative viability (LU99A; first compound 0.01581 µM)?
**A.** 0.67

**Q.** And the relative viability (LU99A; first compound 0.05 µM)?
**A.** 0.444

**Q.** And the relative viability (LU99A; first compound 0.1581 µM)?
**A.** 0.543

**Q.** What about the relative viability (LU99A; first compound 0.5 µM) of the same compound?
**A.** 0.522

**Q.** And the relative viability (NCI-H1563; first compound 0.005 µM)?
**A.** 0.99

**Q.** And the relative viability (NCI-H1563; first compound 0.01581 µM)?
**A.** 1.13

**Q.** And the relative viability (NCI-H1563; first compound 0.05 µM)?
**A.** 1.17

**Q.** And the relative viability (NCI-H1563; first compound 0.1581 µM)?
**A.** 1.24

**Q.** And the relative viability (NCI-H1563; first compound 0.5 µM)?
**A.** 1.27

**Q.** What about the relative viability (NCI-H1793; first compound 0.005 µM) of the same compound?
**A.** 0.97

**Q.** What about the relative viability (NCI-H1793; first compound 0.01581 µM) of the same compound?
**A.** 1.17

**Q.** And the relative viability (NCI-H1793; first compound 0.05 µM)?
**A.** 0.643

**Q.** What about the relative viability (NCI-H1793; first compound 0.1581 µM) of the same compound?
**A.** 0.834

**Q.** And the relative viability (NCI-H1793; first compound 0.5 µM)?
**A.** 0.766

**Q.** And the relative viability (NCI-H1944; first compound 0.005 µM)?
**A.** 1.19

**Q.** And the relative viability (NCI-H1944; first compound 0.01581 µM)?
**A.** 1.33

**Q.** What about the relative viability (NCI-H1944; first compound 0.05 µM) of the same compound?
**A.** 1.01

**Q.** What about the relative viability (NCI-H1944; first compound 0.1581 µM) of the same compound?
**A.** 1.19

**Q.** What about the relative viability (NCI-H1944; first compound 0.5 µM) of the same compound?
**A.** 1.17

**Q.** And the relative viability (NCI-H2347; first compound 0.005 µM)?
**A.** 0.94

**Q.** And the relative viability (NCI-H2347; first compound 0.01581 µM)?
**A.** 1.03

**Q.** What about the relative viability (NCI-H2347; first compound 0.05 µM) of the same compound?
**A.** 0.876

**Q.** And the relative viability (NCI-H2347; first compound 0.1581 µM)?
**A.** 0.954

**Q.** What about the relative viability (NCI-H2347; first compound 0.5 µM) of the same compound?
**A.** 0.973

**Q.** And the relative viability (NCI-H23; first compound 0.005 µM)?
**A.** 0.628

**Q.** And the relative viability (NCI-H23; first compound 0.01581 µM)?
**A.** 0.691

**Q.** And the relative viability (NCI-H23; first compound 0.05 µM)?
**A.** 0.559

**Q.** And the relative viability (NCI-H23; first compound 0.1581 µM)?
**A.** 0.509

**Q.** And the relative viability (NCI-H23; first compound 0.5 µM)?
**A.** 0.642

**Q.** And the relative viability (NCI-H460; first compound 0.005 µM)?
**A.** 0.77

**Q.** What about the relative viability (NCI-H460; first compound 0.01581 µM) of the same compound?
**A.** 0.825

**Q.** And the relative viability (NCI-H460; first compound 0.05 µM)?
**A.** 0.919

**Q.** And the relative viability (NCI-H460; first compound 0.1581 µM)?
**A.** 0.896

**Q.** What about the relative viability (NCI-H460; first compound 0.5 µM) of the same compound?
**A.** 0.744

**Q.** And the relative viability (NCI-H650; first compound 0.005 µM)?
**A.** 0.703

**Q.** And the relative viability (NCI-H650; first compound 0.01581 µM)?
**A.** 0.817

**Q.** And the relative viability (NCI-H650; first compound 0.05 µM)?
**A.** 0.97

**Q.** What about the relative viability (NCI-H650; first compound 0.1581 µM) of the same compound?
**A.** 0.767

**Q.** What about the relative viability (NCI-H650; first compound 0.5 µM) of the same compound?
**A.** 0.846

**Q.** And the relative viability (NCI-H727; first compound 0.005 µM)?
**A.** 0.299

**Q.** What about the relative viability (NCI-H727; first compound 0.01581 µM) of the same compound?
**A.** 0.358

**Q.** And the relative viability (NCI-H727; first compound 0.1581 µM)?
**A.** 0.284

**Q.** What about the relative viability (NCI-H727; first compound 0.5 µM) of the same compound?
**A.** 0.162

**Q.** And the relative viability (NCI-H838; first compound 0.005 µM)?
**A.** 0.89

**Q.** And the relative viability (NCI-H838; first compound 0.01581 µM)?
**A.** 1.11

**Q.** And the relative viability (NCI-H838; first compound 0.05 µM)?
**A.** 1.12

**Q.** What about the relative viability (NCI-H838; first compound 0.1581 µM) of the same compound?
**A.** 1.03

**Q.** What about the relative viability (NCI-H838; first compound 0.5 µM) of the same compound?
**A.** 1.03

**Q.** What about the relative viability (PC-14; first compound 0.005 µM) of the same compound?
**A.** 1.03

**Q.** And the relative viability (PC-14; first compound 0.01581 µM)?
**A.** 1.04

**Q.** What about the relative viability (PC-14; first compound 0.05 µM) of the same compound?
**A.** 1.07

**Q.** What about the relative viability (PC-14; first compound 0.1581 µM) of the same compound?
**A.** 0.926

**Q.** What about the relative viability (PC-14; first compound 0.5 µM) of the same compound?
**A.** 0.977

**Q.** What about the relative viability (PC-3 [JPC-3]; first compound 0.005 µM) of the same compound?
**A.** 0.964

**Q.** What about the relative viability (PC-3 [JPC-3]; first compound 0.01581 µM) of the same compound?
**A.** 0.996

**Q.** And the relative viability (PC-3 [JPC-3]; first compound 0.05 µM)?
**A.** 0.996

**Q.** And the relative viability (PC-3 [JPC-3]; first compound 0.1581 µM)?
**A.** 0.983

**Q.** What about the relative viability (PC-3 [JPC-3]; first compound 0.5 µM) of the same compound?
**A.** 0.969

**Q.** And the relative viability (SW 1573; first compound 0.005 µM)?
**A.** 0.856

**Q.** What about the relative viability (SW 1573; first compound 0.01581 µM) of the same compound?
**A.** 0.841

**Q.** And the relative viability (SW 1573; first compound 0.05 µM)?
**A.** 0.747

**Q.** What about the relative viability (SW 1573; first compound 0.1581 µM) of the same compound?
**A.** 0.798

**Q.** What about the relative viability (SW 1573; first compound 0.5 µM) of the same compound?
**A.** 0.898
